Activity calls are given as the source filed them. The rule behind the calls is not given here.
Tests used:
Aspergillus = assay: Antifungal activity against Aspergillus at 10 mg/ml after 72 hrs by disc diffusion method; assay type: functional, organism-based
Klebsiella aerogenes [1] = assay: Antibacterial activity against Enterobacter aerogenes at 6.25 to 200 ug/ml after 24 hrs by microwell dilution method; assay type: functional, organism-based
Hepacivirus hominis = assay: Inhibition of HCV N-terminal His-tagged NS5B RNA dependent RNA polymerase expressed in Escherichia coli DH5alpha using poly rA/U12 as primer at 200 uM after 60 mins by liquid scintillation counting
Photorhabdus luminescens [2] = assay: Antibacterial activity against Photorhabdus luminescens at 6.25 to 200 ug/ml after 24 hrs by microwell dilution method; assay type: functional, organism-based
Candida albicans = assay: Antifungal activity against Candida albicans at 10 mg/ml after 48 hrs by disc diffusion method; assay type: functional, organism-based
[3] = tested on: Schwanniomyces occidentalis; assay: Antifungal activity against Schwanniomyces occidentalis at 10 mg/ml after 48 hrs by disc diffusion method; assay type: functional, organism-based
Micrococcus lylae [4] = assay: Antibacterial activity against Micrococcus lylae at 10 mg/ml after 24 hrs by disc diffusion method; assay type: functional, organism-based
Micrococcus luteus [5] = assay: Antibacterial activity against Micrococcus luteus at 10 mg/ml after 24 hrs by disc diffusion method; assay type: functional, organism-based
Micrococcus luteus [6] = assay: Antibacterial activity against Micrococcus luteus at 6.25 to 200 ug/ml after 24 hrs by microwell dilution method; assay type: functional, organism-based
Pseudomonas aeruginosa [7] = assay: Antibacterial activity against Pseudomonas aeruginosa at 10 mg/ml after 24 hrs by disc diffusion method; assay type: functional, organism-based
Photorhabdus luminescens [8] = assay: Antibacterial activity against Photorhabdus luminescens at 10 mg/ml after 24 hrs by disc diffusion method; assay type: functional, organism-based
[9] = tested on: Acinetobacter radioresistens; assay: Antibacterial activity against Acinetobacter radioresistens at 6.25 to 200 ug/ml after 24 hrs by microwell dilution method; assay type: functional, organism-based
Klebsiella aerogenes [10] = assay: Antibacterial activity against Enterobacter aerogenes at 10 mg/ml after 24 hrs by disc diffusion method; assay type: functional, organism-based
Staphylococcus aureus [11] = assay: Antibacterial activity against Staphylococcus aureus at 6.25 to 200 ug/ml after 24 hrs by microwell dilution assay; assay type: functional, organism-based
[12] = tested on: Acinetobacter radioresistens; assay: Antibacterial activity against Acinetobacter radioresistens at 10 mg/ml after 24 hrs by disc diffusion method; assay type: functional, organism-based
Salmonella paratyphi [13] = assay: Antibacterial activity against Salmonella paratyphi at 10 mg/ml after 24 hrs by disc diffusion method; assay type: functional, organism-based; conditions: Salmonella enterica subsp. enterica serovar Paratyphi A
Escherichia coli [14] = assay: Antibacterial activity against Escherichia coli at 6.25 to 200 ug/ml after 24 hrs by microwell dilution method; assay type: functional, organism-based
Proteus vulgaris [15] = assay: Antibacterial activity against Proteus vulgaris at 10 mg/ml after 24 hrs by disc diffusion method; assay type: functional, organism-based
Kluyveromyces marxianus = assay: Antifungal activity against Kluyveromyces marxianus at 10 mg/ml after 48 hrs by disc diffusion method; assay type: functional, organism-based
Pichia membranifaciens = assay: Antifungal activity against Pichia membranifaciens at 10 mg/ml after 48 hrs by disc diffusion method; assay type: functional, organism-based
Salmonella paratyphi [16] = assay: Antibacterial activity against Salmonella paratyphi at 6.25 to 200 ug/ml after 24 hrs by microwell dilution method; assay type: functional, organism-based; conditions: Salmonella enterica subsp. enterica serovar Paratyphi A
Staphylococcus cohnii [17] = assay: Antibacterial activity against Staphylococcus cohnii at 10 mg/ml after 24 hrs by disc diffusion method; assay type: functional
Proteus vulgaris [18] = assay: Antibacterial activity against Proteus vulgaris at 6.25 to 200 ug/ml after 24 hrs by microwell dilution method; assay type: functional, organism-based
Staphylococcus aureus [19] = assay: Antibacterial activity against Staphylococcus aureus at 10 mg/ml after 24 hrs by disc diffusion method; assay type: functional
Candida parapsilosis = assay: Antifungal activity against Candida parapsilosis at 10 mg/ml after 48 hrs by disc diffusion method; assay type: functional, organism-based
Escherichia coli [20] = assay: Antibacterial activity against Escherichia coli at 10 mg/ml after 24 hrs by disc diffusion method; assay type: functional, organism-based
Nakaseomyces glabratus = assay: Antifungal activity against Candida glabrata at 10 mg/ml after 48 hrs by disc diffusion method; assay type: functional, organism-based
Candida tropicalis = assay: Antifungal activity against Candida tropicalis at 10 mg/ml after 48 hrs by disc diffusion method; assay type: functional, organism-based
Pseudomonas aeruginosa [21] = assay: Antibacterial activity against Pseudomonas aeruginosa at 6.25 to 200 ug/ml after 24 hrs by microwell dilution method; assay type: functional, organism-based
Micrococcus lylae [22] = assay: Antibacterial activity against Micrococcus lylae at 6.25 to 200 ug/ml after 24 hrs by microwell dilution method; assay type: functional, organism-based
Staphylococcus cohnii [23] = assay: Antibacterial activity against Staphylococcus cohnii at 6.25 to 200 ug/ml after 24 hrs by microwell dilution assay; assay type: functional, organism-based

Compound | Activity (Aspergillus) | Activity (Klebsiella aerogenes [1]) | inhibition (Hepacivirus hominis) [%] | Activity (Photorhabdus luminescens [2]) | Activity (Candida albicans) | Activity [3] | Activity (Micrococcus lylae [4]) | Activity (Micrococcus luteus [5]) | Activity (Micrococcus luteus [6]) | Activity (Pseudomonas aeruginosa [7]) | Activity (Photorhabdus luminescens [8]) | Activity [9] | Activity (Klebsiella aerogenes [10]) | Activity (Staphylococcus aureus [11]) | Activity [12] | Activity (Salmonella paratyphi [13]) | Activity (Escherichia coli [14]) | Activity (Proteus vulgaris [15]) | Activity (Kluyveromyces marxianus) | Activity (Pichia membranifaciens) | further results
CCNC(=S)NNC(=O)C(C)c1ccc(-c2ccccc2)c(F)c1 (stereo unspecified) | inactive | inactive | 8 | inactive | inactive | inactive | inactive | inactive | inactive | inactive | inactive | inactive | inactive | inactive | inactive | inactive | inactive | inactive | inactive | inactive | Activity (Salmonella paratyphi [16]): inactive; Activity (Staphylococcus cohnii [17]): inactive; Activity (Proteus vulgaris [18]): inactive; Activity (Staphylococcus aureus [19]): inactive; Activity (Candida parapsilosis): inactive; Activity (Escherichia coli [20]): inactive; Activity (Nakaseomyces glabratus): inactive; Activity (Candida tropicalis): inactive; Activity (Pseudomonas aeruginosa [21]): inactive; Activity (Micrococcus lylae [22]): inactive; Activity (Staphylococcus cohnii [23]): inactive
CC(C(=O)NN1C(=O)CSC1c1ccc([N+](=O)[O-])cc1)c1ccc(-c2ccccc2)c(F)c1 (stereo unspecified) | inactive | inactive | 8 | inactive | inactive | inactive | inactive | inactive | inactive | inactive | inactive | inactive | inactive | inactive | inactive | inactive | inactive | inactive | inactive | inactive | Activity (Salmonella paratyphi [16]): inactive; Activity (Staphylococcus cohnii [17]): inactive; Activity (Proteus vulgaris [18]): inactive; Activity (Staphylococcus aureus [19]): inactive; Activity (Candida parapsilosis): inactive; Activity (Escherichia coli [20]): inactive; Activity (Nakaseomyces glabratus): inactive; Activity (Candida tropicalis): inactive; Activity (Pseudomonas aeruginosa [21]): inactive; Activity (Micrococcus lylae [22]): inactive; Activity (Staphylococcus cohnii [23]): inactive
CC(C(=O)N/N=C/c1ccc(C(F)(F)F)cc1)c1ccc(-c2ccccc2)c(F)c1 (stereo unspecified) | inactive | inactive | 8 | inactive | inactive | inactive | inactive | inactive | inactive | inactive | inactive | inactive | inactive | inactive | inactive | inactive | inactive | inactive | inactive | inactive | Activity (Salmonella paratyphi [16]): inactive; Activity (Staphylococcus cohnii [17]): inactive; Activity (Proteus vulgaris [18]): inactive; Activity (Staphylococcus aureus [19]): inactive; Activity (Candida parapsilosis): inactive; Activity (Escherichia coli [20]): inactive; Activity (Nakaseomyces glabratus): inactive; Activity (Candida tropicalis): inactive; Activity (Pseudomonas aeruginosa [21]): inactive; Activity (Micrococcus lylae [22]): inactive; Activity (Staphylococcus cohnii [23]): inactive
CC(C(=O)NNC(=S)NCc1ccccc1)c1ccc(-c2ccccc2)c(F)c1 (stereo unspecified) | inactive | inactive | 8 | inactive | inactive | inactive | inactive | inactive | inactive | inactive | inactive | inactive | inactive | inactive | inactive | inactive | inactive | inactive | inactive | inactive | Activity (Salmonella paratyphi [16]): inactive; Activity (Staphylococcus cohnii [17]): inactive; Activity (Proteus vulgaris [18]): inactive; Activity (Staphylococcus aureus [19]): inactive; Activity (Candida parapsilosis): inactive; Activity (Escherichia coli [20]): inactive; Activity (Nakaseomyces glabratus): inactive; Activity (Candida tropicalis): inactive; Activity (Pseudomonas aeruginosa [21]): inactive; Activity (Micrococcus lylae [22]): inactive; Activity (Staphylococcus cohnii [23]): inactive
CC(C(=O)N/N=C/c1ccc(F)cc1)c1ccc(-c2ccccc2)c(F)c1 (stereo unspecified) | inactive | inactive | 8 | inactive | inactive | inactive | inactive | inactive | inactive | inactive | inactive | inactive | inactive | inactive | inactive | inactive | inactive | inactive | inactive | inactive | Activity (Salmonella paratyphi [16]): inactive; Activity (Staphylococcus cohnii [17]): inactive; Activity (Proteus vulgaris [18]): inactive; Activity (Staphylococcus aureus [19]): inactive; Activity (Candida parapsilosis): inactive; Activity (Escherichia coli [20]): inactive; Activity (Nakaseomyces glabratus): inactive; Activity (Candida tropicalis): inactive; Activity (Pseudomonas aeruginosa [21]): inactive; Activity (Micrococcus lylae [22]): inactive; Activity (Staphylococcus cohnii [23]): inactive
CC(C(=O)NNC(=S)Nc1ccccc1)c1ccc(-c2ccccc2)c(F)c1 (stereo unspecified) | inactive | inactive | 8 | inactive | inactive | inactive | inactive | inactive | inactive | inactive | inactive | inactive | inactive | inactive | inactive | inactive | inactive | inactive | inactive | inactive | Activity (Salmonella paratyphi [16]): inactive; Activity (Staphylococcus cohnii [17]): inactive; Activity (Proteus vulgaris [18]): inactive; Activity (Staphylococcus aureus [19]): inactive; Activity (Candida parapsilosis): inactive; Activity (Escherichia coli [20]): inactive; Activity (Nakaseomyces glabratus): inactive; Activity (Candida tropicalis): inactive; Activity (Pseudomonas aeruginosa [21]): inactive; Activity (Micrococcus lylae [22]): inactive; Activity (Staphylococcus cohnii [23]): inactive
